{"source": "patent US20190365878A1", "about": "“PHARMACEUTICAL TREATMENTS FOR PREVENTING OR TREATING PANCREATIC CANCER” (THE JOHNS HOPKINS UNIVERSITY, priority 2016, published 2019)", "tested_on": "Panc02 murine pancreatic adenocarcinoma cells", "experiment": "hemi-splenectomy liver metastasis mouse model, 90 day survival", "assay_type": "in vivo, C57/B16 mice", "conditions": "28-day dosing scheme, followed 90 days", "description": "Survival Proportions: 90 Day survival of all groups.\nThe inventors performed hemi-splenectomy with the injection of 2×10^6 Panc02 murine pancreatic adenocarcinoma cells on C57/B16 mice, aged 9-10 weeks to model metastasis of pancreatic tumor cells to the liver. Mice were divided into treatment groups and dosed with cyclophosphamide and GVAX vaccine as well as an oral IDO1 inhibitor PF-06840003, according to a 28-day dosing scheme.\nAn oral methocel vehicle was given as a placebo treatment. The IDO inhibitor PF-06840003 and oral methocel compounds were administered twice daily by oral gavage, starting on post-operative day 3 and extending through post-operative day 28. Cyclophosphamide was administered on post-operative day 3. GVAX vaccine was administered on post-operative days 4, 7, 14 and 21. Mice were followed for survival for 90 days.", "data": [{"smiles": "O=C1CC(c2c[nH]c3ccc(F)cc23)C(=O)N1", "note": "(stereo not shown) [PF-06840003]", "values": [{"measurement": "survival", "value": "no significant effect on survival"}]}]}
